# Measurements: PMC9780942, “Antimicrobial Activity and Immunomodulatory Properties of Acidocin A, the Pediocin-like Bacteriocin with the Non-Canonical Structure” (Membranes, 2022)
# Positions of bridges follow the written chain, without caps; N, C: chain ends. No end group written: not given here.
# Tests used:
# [1] = system: L. lactis MK43; test: Antibacterial activity assay (MIC), two-fold serial dilutions in liquid medium; assay type: cell-based; details: for Minimum inhibitory concentration in the presence of NaCl: MHB supplemented with 0.9% NaCl; for Minimum Inhibitory Concentration: MHB, 0.1% BSA, 37 °C, 24 h, no visible growth
# Experimental: (§1) Antibacterial activity of recombinant bacteriocins against a number of Gram-positive and Gram-negative bacteria (Table S2) was determined by the method of two-fold serial dilutions in a liquid medium. Two-fold serial dilutions of bacteriocins were prepared in sterile 96-well flat-bottom polystyrene microplates (Eppendorf, Hamburg, Germany) (Cat. No. 0030730.011) in a volume of 50 µL of sterile 0.1% bovine serum albumin (BSA) (SERVA Electrophoresis GmbH, Heidelberg, Germany) to prevent non-specific sorption of peptides to the surface of the plate wells [23]. Mid-log phase bacterial cultures were diluted with the 2x Mueller-Hinton broth (MHB) (Sigma-Aldrich, St. Louis, MO, USA) to a final cell concentration of 10^6 colony forming units (CFU) per mL. To determine the activity of bacteriocins against Listeria and Enterococci, 3% tryptic soy broth (TSB) (Merck-Millipore, Burlington, MA, USA) was used instead of MHB. Aliquots of 50 μL of diluted bacterial suspensions were added to each well of the plate, which was then incubated at 37 °C and 950 rpm for 24 h using thermostatable plate shaker PST-60HL-4 (Biosan, Riga, Latvia). As a negative control, 50 µL of the sterile growth medium (2xMHB or 6% TSB) was added to the wells containing 50 µL of 0.1% BSA. The values of the minimum inhibitory concentrations (MIC) were determined as the minimum concentration of the peptide, at which there was no visible growth of bacterial culture. Incubation for 2 h with 20 µg/mL chromogenic substrate resazurin (Sigma-Aldrich, St. Louis, MO, USA) was used to detect viable bacterial cells if they were difficult to visually detect. To study the effect of inorganic salts on the antimicrobial activity of bacteriocins, antibacterial activity assay was carried out in MHB medium supplemented with 0.9% NaCl.
# [2] = system: B. subtilis B-886; assay type: cell-based; details: B-886, 24 h
# Experimental: as §1
# [3] = system: M. phlei Ac-1221; assay type: cell-based; details: 24 h
# Experimental: as §1
# [4] = system: S. aureus 209P; assay type: cell-based; details: 24 h
# Experimental: as §1
# [5] = system: E. coli ATCC 25922; assay type: cell-based; details: ATCC 25922, 24 h
# Experimental: as §1
# [6] = system: E. coli ML-35p; assay type: cell-based; details: 24 h
# Experimental: as §1
# [7] = system: B. licheniformis B-511; assay type: cell-based; details: 24 h
# Experimental: as §1
# [8] = system: E. coli SQ110; assay type: cell-based; details: SQ110, 24 h
# Experimental: as §1
# [9] = system: M. luteus Ac-2229; assay type: cell-based; details: Ac-2229, 24 h
# Experimental: as §1
# [10] = system: A. baumannii XDR CI 2675; assay type: cell-based; details: XDR CI 2675, 24 h
# Experimental: as §1
# [11] = system: L. lactis MK66; assay type: cell-based; details: MK66, 24 h
# Experimental: as §1
# [12] = system: E. coli XDR CI 1057; assay type: cell-based; details: XDR CI 1057, 24 h
# Experimental: as §1
# [13] = system: P. aeruginosa MDR CI 1995; assay type: cell-based; details: MDR CI 1995, 24 h
# Experimental: as §1
# [14] = system: L. monocytogenes EGD; assay type: cell-based, Listeria monocytogenes; details: 24 h
# Experimental: as §1
# [15] = system: tested bacterial strains; test: Antibacterial activity assay (MIC), average change over the tested strains; assay type: cell-based
# Experimental: as §1, with “As a negative control, 50 µL of the sterile growth medium (2xMHB or 6% TSB) was added to the wells containing 50 µL of 0.1% BSA.” left out, “Incubation for 2 h with 20 µg/mL chromogenic substrate resazurin (Sigma-Aldrich, St. Louis, MO, USA) was used to detect viable bacterial cells if they were difficult to visually detect. To study the effect of inorganic salts on the antimicrobial activity of bacteriocins, antibacterial activity assay was carried out in MHB medium supplemented with 0.9% NaCl.” left out
Sequence,Minimum inhibitory concentration in the presence of NaCl [1] [µM],Minimum Inhibitory Concentration [1] [µM],Minimum Inhibitory Concentration [2] [µM],Minimum inhibitory concentration in the presence of NaCl [2] [µM],Minimum Inhibitory Concentration [3] [µM],Minimum Inhibitory Concentration [4] [µM],Minimum Inhibitory Concentration [5] [µM],Minimum Inhibitory Concentration [6] [µM],Minimum inhibitory concentration in the presence of NaCl [6] [µM],Minimum Inhibitory Concentration [7] [µM],Minimum inhibitory concentration in the presence of NaCl [7] [µM],Minimum Inhibitory Concentration [8] [µM],Minimum inhibitory concentration in the presence of NaCl [8] [µM],Minimum Inhibitory Concentration [9] [µM],Minimum Inhibitory Concentration [10] [µM],Minimum Inhibitory Concentration [11] [µM],Minimum inhibitory concentration in the presence of NaCl [11] [µM],Minimum Inhibitory Concentration [12] [µM],Minimum Inhibitory Concentration [13] [µM],Minimum Inhibitory Concentration [14] [µM],other results
KTYVGNTGYHCTKKSLWGKVRLKNVIPGTLCRKQSLPIKQDLKILLGWATGAFGKTFH (disulfide 11-31) [AcdA(x4)],> 32,4,8,> 32,4,16,16,8,16,4,> 32,8,32,8,4,2,> 32,8,16,>32,–
KTYYGNGVHCTKKSLWGKVRLKNVIPGTLCRKQSLPIKQDLKILLGWATGAFGKTFH (cysteines drawn unpaired) [AcdA(dT) (DTT reduced)],–,2,4,–,4,16,8,4,–,4,–,4,–,16,8,1,–,16,>32,>32,–
KTYYGNGVHCTKKSLWGKVRLKNVIPGTLCRKQSLPIKQDLKILLGWATGAFGKTFH (disulfide 10-30) [AcdA(dT)],> 32,1,2,> 32,2,8,4,2,16,2,> 32,1,8,8,4,0.5,32,8,16,>128,–
"KTYYGNGVHCTKKSLWGKVRLKNVIPGTLSRKQSLPIKQDLKILLGWATGAFGKTFH [AcdA(dT,C31S)]",> 32,2,4,> 32,4,32,8,8,32,4,> 32,8,16,16,16,1,> 32,16,>32,>32,Increase of MIC values on average compared to AcdA(dT) and acidocin A [15]: 2–4 fold
"KTYYGNGVHSTKKSLWGKVRLKNVIPGTLCRKQSLPIKQDLKILLGWATGAFGKTFH [AcdA(dT,C11S)]",> 32,4,4,> 32,4,32,8,4,32,4,> 32,4,16,16,8,1,> 32,16,>32,>32,Increase of MIC values on average compared to AcdA(dT) and acidocin A [15]: 2–4 fold
"KTYYGNGVHSTKKSLWGKVRLKNVIPGTLSRKQSLPIKQDLKILLGWATGAFGKTFH [AcdA(dT,C11S,C31S)]",> 32,4,4,> 32,8,>32,>64,>64,–,4,> 32,16,> 32,32,>32,1,> 32,>64,>32,>32,–
KTYYGTNAVHCTKKSLWGKVRLKNVIPGTLCRKQSLPIKQDLKILLGWATGAFGKTFH (disulfide 11-31) [AcdA(G8A)],> 32,4,8,> 32,2,8,16,8,16,8,> 32,4,32,16,8,2,> 32,8,16,>32,–
KTYYGTNGVHCTKKSLWGKVRLKNVIPGTLCRKQSLPIKQDLKILLGWATGAFGKTFH (cysteines drawn unpaired) [AcdA (DTT reduced)],–,2,4,–,4,16,8,4,–,4,–,4,–,16,8,1,–,16,>32,>32,–
